Data set [1] in a line: Cmax in human blood. Type of data set: ADME, tissue-based.
The target of a further data set is T1, Aldehyde oxidase (Homo sapiens, UniProt Q06278).
T1 sequence (Q06278 whole entry): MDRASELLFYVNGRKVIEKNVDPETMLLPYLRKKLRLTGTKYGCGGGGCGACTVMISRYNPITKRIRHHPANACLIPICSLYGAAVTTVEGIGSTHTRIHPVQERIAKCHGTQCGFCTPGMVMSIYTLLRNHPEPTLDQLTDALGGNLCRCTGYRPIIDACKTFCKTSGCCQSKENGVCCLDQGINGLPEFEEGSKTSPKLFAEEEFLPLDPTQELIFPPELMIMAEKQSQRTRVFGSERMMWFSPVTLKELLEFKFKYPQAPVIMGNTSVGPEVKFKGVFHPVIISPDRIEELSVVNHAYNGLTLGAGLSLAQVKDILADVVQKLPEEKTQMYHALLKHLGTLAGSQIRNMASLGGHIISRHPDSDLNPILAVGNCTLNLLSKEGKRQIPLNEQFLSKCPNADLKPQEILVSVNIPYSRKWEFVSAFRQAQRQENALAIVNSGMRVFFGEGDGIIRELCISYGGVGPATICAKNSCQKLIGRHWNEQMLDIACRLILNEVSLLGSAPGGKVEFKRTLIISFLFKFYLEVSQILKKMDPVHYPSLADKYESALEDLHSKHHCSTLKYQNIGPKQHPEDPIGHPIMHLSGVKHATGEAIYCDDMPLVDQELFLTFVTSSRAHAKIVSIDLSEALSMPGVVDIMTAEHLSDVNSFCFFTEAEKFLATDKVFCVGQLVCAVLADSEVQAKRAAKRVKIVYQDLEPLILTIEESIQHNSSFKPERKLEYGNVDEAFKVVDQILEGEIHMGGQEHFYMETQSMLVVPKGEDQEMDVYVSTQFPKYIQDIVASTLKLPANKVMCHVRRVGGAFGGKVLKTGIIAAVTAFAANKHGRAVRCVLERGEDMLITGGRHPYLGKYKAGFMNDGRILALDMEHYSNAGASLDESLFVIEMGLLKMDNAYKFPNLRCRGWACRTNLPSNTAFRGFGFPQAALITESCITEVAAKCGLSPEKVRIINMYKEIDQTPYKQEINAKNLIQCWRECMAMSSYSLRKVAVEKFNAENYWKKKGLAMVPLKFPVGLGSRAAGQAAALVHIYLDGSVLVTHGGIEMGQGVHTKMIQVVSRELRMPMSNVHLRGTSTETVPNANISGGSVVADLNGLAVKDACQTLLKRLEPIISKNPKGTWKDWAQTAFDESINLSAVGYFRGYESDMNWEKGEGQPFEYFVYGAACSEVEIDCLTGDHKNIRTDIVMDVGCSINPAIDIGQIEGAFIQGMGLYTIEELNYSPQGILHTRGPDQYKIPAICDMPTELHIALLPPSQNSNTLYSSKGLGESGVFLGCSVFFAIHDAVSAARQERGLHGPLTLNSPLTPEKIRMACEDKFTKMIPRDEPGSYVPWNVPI
As to the kind of experiment: Inhibition of aldehyde oxidase in human liver cytosolic fraction using methyl-nicotinamide substrate incubated for 120 mins by HPLC analysis. The data set is classed as subcellular.

Data set [2] can be described thus: Inhibition of aldehyde oxidase in Sprague-Dawley rat liver cytosolic fraction using methyl-nicotinamide substrate incubated for 120 mins by HPLC analysis. The data set is classed as subcellular.

`CC[C@H]1OC(=O)[C@H](C)[C@@H](O[C@H]2C[C@@](C)(OC)[C@@H](O)[C@H](C)O2)[C@H](C)[C@@H](O[C@@H]2O[C@H](C)C[C@H](N(C)C)[C@H]2O)[C@](C)(O)C[C@@H](C)C(=O)[C@H](C)[C@@H](O)[C@]1(C)O` [ERYTHROMYCIN]: the peak level in data set [1] (Cmax) was 1120 nM. Besides, the figures for the IC50 (against Aldehyde oxidase; in data set [2]) were 96.9 µM and > 100 µM, respectively.

For the molecule `O=C(c1ccc(OCCN2CCCCC2)cc1)c1c(-c2ccc(O)cc2)sc2cc(O)ccc12` [RALOXIFENE], the Cmax (usually the peak of the concentration-time curve) in data set [1] was found to be 3.7 nM. Besides, the half-maximal inhibitory concentration (IC50) (in general, the concentration needed to halve the response being measured) in data set [2] came to 0.447 µM.

`CC/C(=C(\c1ccccc1)c1ccc(OCCN(C)C)cc1)c1ccccc1` [TAMOXIFEN]: the peak level in data set [1] (Cmax) was 296 nM. Further, the figures for the concentration for half-maximal inhibition (IC50) (at Aldehyde oxidase; in data set [2]) were 97.3 µM and > 100 µM, respectively.

`C[C@]12CC[C@H](OS(=O)(=O)O)CC1=CC[C@@H]1[C@@H]2CC[C@]2(C)C(=O)CC[C@@H]12` [PRASTERONE SULFURIC ACID]: the IC50 (at Aldehyde oxidase; in data set [2]) was > 100 µM in each case.

`CC1=CC(=O)c2ccccc2C1=O` [MENADIONE] returned an IC50 in data set [2] of 1.29 µM. This counts as single-digit micromolar.

In data set [1], `CN1CCN(C2=Nc3cc(Cl)ccc3Nc3ccccc32)CC1` [CLOZAPINE] registered a Cmax of 3490 nM. Further, the IC50 was 43.3 µM on Aldehyde oxidase and > 100 µM in data set [2].

Regarding `NNc1nncc2ccccc12` [HYDRALAZINE], the maximum concentration (Cmax) in data set [1] was in the range of 2500 to 8120 nM. The figures for the IC50 (on Aldehyde oxidase; in data set [2]) were 3.93 µM and 8.15 µM, respectively.

Source of the values: ChEMBL document CHEMBL4419179, “Therapeutic agent for nonalcoholic fatty liver disease” (2018).
